Values after ≈ are worked out from the molar mass of the structure shown. “Also recorded” adds a separate entry of the source.
Key:
[1] = tested on: drug-sensitive C. albicans; experiment: Growth inhibition in fungal growth media with 10% FBS; type: cell-based, Candida albicans; conditions: 10% fetal bovine serum; concentrations up to 512 μg mL^–1; data not shown
[2] = tested on: Staphylococcus aureus (various strains); parameters: method as in doi:10.1016/j.foodchem.2010.04.072; conditions: antibacterial; possibly iron chelation; cited from earlier work
[3] = tested on: C. albicans wild type (CAF2-1) and cdr1Δ/Δ cdr2Δ/Δ mdr1Δ/Δ flu1Δ/Δ; experiment: microbe, parasite or virus in culture; type: cell-based, Candida albicans; conditions: for MIC90: Candida albicans, 72 h, RPMI-1640, 72 h, 30 °C, OD600
[4] = after oral administration in mice; cited from earlier work
Acinetobacter baumanii = tested on: Acinetobacter baumanii; parameters: method as in PMID 32948818; conditions: 21 daily passages; cited from earlier work
SK-HEP-1 cells = tested on: SK-HEP-1 cells; parameters: method as in PMID 11675148; conditions: inhibition of proliferation; cited from earlier work
MRSA (various strains) = conditions: antibacterial; possibly iron chelation; cited from earlier work
[5] = cited from earlier work
C. albicans 90028 [6] = experiment: Media supplementation (Mg, Ca, Mn, Zn) growth inhibition assay; type: cell-based, Candida albicans
Method: For media supplementation experiments, magnesium sulfate (Alfa Aesar), manganese sulfate, zinc sulfate, and calcium chloride (Ward Science) were dissolved in RPMI-1640 media and, after 24 h, added at a final concentration of 1 mM. Growth inhibition was measured 24 h after media supplementation. Percent growth inhibition was determined by comparing treatments to vehicle controls. Media supplementation experiments were repeated in triplicate with four technical replicates per treatment and on different days. page 6: Figure S5. Effect of supplemental cations on growth inhibition of penta-O-galloyl- β-D-glucose against C. albicans. C. albicans.90028 was treated with PGG alone and in combination with 1 mM magnesium (Mg2+) or 1 mM calcium (Ca2+). The data are plotted as mean % growth inhibition ± SD as compared to vehicle controls from two independent experiments. Dotted line represents 90% growth inhibition. S6 (1 picture or pasted object on this page, not shown here) page 7: Figure S6. Effect of supplemental metal ions on growth inhibition of penta-O- galloyl-β-D-glucose against C. albicans. C. albicans 90028 was treated with PGG alone and in combination with 1 mM manganese (Mn2+) or 1 mM zinc (Zn2+). The data are plotted as mean % growth inhibition ± SD as compared to vehicle controls from two independent experiments . Dotted line represents 90% growth inhibition . Statistical analysis was done using 2 -way ANOVA with multiple comparisons. The symbol (*) […] S7 (1 picture or pasted object on this page, not shown here)

influenza A = tested on: influenza A; parameters: method as in PMID 35033970; conditions: interference with viral replication; cited from earlier work
[7] = LDH chemical-induced cytotoxicity; type: cell-based
Method: Hek293 cells were purchased from BEI Resources. HaCaT cells were purchased from ATCC. HepG2 cells were provided by Dr. Edward Morgan (Emory University). Mammalian cell cultures were maintained in Dulbecco’s modified Eagle’s medium with L-glutamine and 4.5 g L^–1 glucose (Corning) supplemented with 10% fetal bovine serum (Avantor) and a 100× combination solution of 10,000 IU mL^–1 penicillin and 10,000 μg mL^–1 streptomycin (Corning) at 37 °C, 5% CO2. Mammalian cultures at 70–80% confluency were used for cell viability and cytotoxicity experiments.
The mammalian culture was standardized to 4 × 10^3 cells per 100 μL. Cells were allowed to attach and incubate for 24 h before growth media was replaced with treatment media (PGG, 16–512 μg mL^–1) or an equivalent volume of the DMSO vehicle, followed by incubation for 24 h. Plates were then evaluated with an LDH cytotoxicity assay (G Biosciences) and processed according to the manufacturer’s protocol for chemical-induced cytotoxicity. Experiments were repeated in triplicate with three technical replicates per treatment and on different days.

C. albicans 90028 [8] = experiment: Iron supplementation growth inhibition assay; type: cell-based, Candida albicans; conditions: 10 mM iron (II) or iron (III); PGG 4–16 μg mL^–1; 48 h
Method: For iron supplementation assays, growth inhibition assays were performed by microbroth dilution following the guidelines set by the CLSI.[58] A solution of iron (II) sulfate and iron (III) sulfate (VWR) was dissolved in deionized water to a concentration of 10 mM and added to treated wells at the beginning of incubation. Growth inhibition was measured after 48 h. Percent growth inhibition was determined by comparing treatments to vehicle controls. Iron supplementation experiments were repeated in duplicate with three technical replicates per treatment and on different days.

[9] = tested on: C. albicans wild type (SN95, SN152) and ire1Δ/Δ, hap43Δ/Δ, rim101Δ/Δ; experiment: microbe, parasite or virus in culture; type: cell-based, Candida albicans; conditions: for MIC90: Candida albicans, 48 h, 30 °C
Candida auris = experiment: Growth inhibition by CLSI microbroth dilution; type: cell-based; conditions: Candidozyma auris, 48 h

## O=C(OC[C@H]1O[C@@H](OC(=O)c2cc(O)c(O)c(O)c2)[C@H](OC(=O)c2cc(O)c(O)c(O)c2)[C@@H](OC(=O)c2cc(O)c(O)c(O)c2)[C@@H]1OC(=O)c1cc(O)c(O)c(O)c1)c1cc(O)c(O)c(O)c1 [PGG, penta-O-galloyl-β-D-glucose]
[1]
  Growth inhibition in serum-supplemented medium: loss of growth inhibition
[2]
  IC50/EC50: 16 to 32 µg/mL
[3]; Wild type (CAF2-1)
  MIC90: > 5 µg/mL
[3]; cdr1Δ/Δ cdr2Δ/Δ mdr1Δ/Δ flu1Δ/Δ
  MIC90: > 5 µg/mL
[3]; mutant versus wild type
  Effect of absence of major efflux pumps (CDR1, CDR2, FLU1, MDR1) on sensitivity: did not modify sensitivity
[4]
  Detection in plasma: could not be detected
Acinetobacter baumanii
  Development of resistance: did not develop resistance
SK-HEP-1 cells
  IC50/EC50: 25 to 50 µM
MRSA (various strains)
  IC50/EC50: 16 to 32 µg/mL
[5]
  Efflux ratio: high efflux ratio
C. albicans 90028 [6]; 1 mM Mg2+ or Ca2+
  Effect of cation treatment (calcium, magnesium) on growth inhibition: no significant effect
C. albicans 90028 [6]; 1 mM Mn2+, at 0.5× MIC of PGG
  Effect of manganese supplementation on growth inhibition: minor effect
C. albicans 90028 [6]; 1 mM Zn2+
  Effect of zinc supplementation on growth inhibition: no effect
Influenza A
  IC50/EC50: 5.3 µg/mL (≈ 5.63 µM)
[7]; HaCaT cells (keratinocytes), HaCaT (human keratinocytes)
  CC50 at 24 h: > 272 µM
[7]; HaCaT cells (keratinocytes), HaCaT (human keratinocytes), serum-supplemented medium
  CC50 at 24 h: > 256 µg/mL
[7]; Hek293 cells (kidney), Hek293 (human kidney)
  CC50 at 24 h: > 272 µM
[7]; Hek293 cells (kidney), Hek293 (human kidney), serum-supplemented medium
  CC50 at 24 h: > 256 µg/mL
[7]; HepG2 cells (liver), HepG2 (human liver)
  CC50 at 24 h: > 272 µM
[7]; HepG2 cells (liver), HepG2 (human liver), serum-supplemented medium
  CC50 at 24 h: > 256 µg/mL
C. albicans 90028 [8]
  Reduction of the growth inhibitory activity on iron supplementation: 80–100%
[9]; Wild type (SN95)
  MIC90: > 20 µg/mL
[9]; Wild type (SN152)
  MIC90: > 20 µg/mL
[9]; hap43Δ/Δ
  MIC90: 0.625 µg/mL (≈ 0.664 µM)
[9]; ire1Δ/Δ
  MIC90: 0.625 µg/mL (≈ 0.664 µM)
[9]; rim101Δ/Δ
  MIC90: 0.625 µg/mL (≈ 0.664 µM)
[9]; mutants versus wild type
  Effect of deletion of IRE1, HAP43 and RIM101 on sensitivity: hypersensitive; also recorded: hypersensitivity
Candida auris; strain AR Bank #0381, >90% growth inhibition
  MIC: 0.25 µg/mL (≈ 0.266 µM)
Candida auris; strain AR Bank #0387, >50% growth inhibition
  IC50: 0.5 µg/mL (≈ 0.532 µM)
Candida auris; strain AR Bank #0387, >90% growth inhibition
  MIC: 1 µg/mL (≈ 1.06 µM)
Candida auris; strain AR Bank #0390, >50% growth inhibition
  IC50: 4 µg/mL (≈ 4.25 µM)
Candida auris; strain AR Bank #0390, >90% growth inhibition
  MIC: 8 µg/mL (≈ 8.5 µM)
